Assay results taken from patent publication US20120225062A1 (priority 2011, published 2012).

Experiments:
[1] = molecular target: Pim 1 (Homo sapiens, UniProt P11309); assay: Pim 1 AlphaScreen assay (high ATP)
[2] = molecular target: Pim 2 (Homo sapiens, UniProt Q9P1W9); assay: Pim 2 AlphaScreen assay (high ATP)
[3] = molecular target: Pim 3 (Homo sapiens, UniProt Q86V86); assay: Pim 3 AlphaScreen assay (high ATP)
[4] = tested on: KMS11 (human myeloma cell line); assay: Cell Proliferation Assay (CellTiter-Glo, 3 days); assay type: cell-based; conditions: KMS-11, 72 h, KMS11-luc cells
Outline: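 KMS11 myeloma cells, 2000 per well in IMDM with 10% FBS, exposed to compound for 3 days at 37° C. Viability read by CellTiter-Glo luminescence; EC50 derived.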

Sequence of Pim 2 (Q9P1W9 whole entry): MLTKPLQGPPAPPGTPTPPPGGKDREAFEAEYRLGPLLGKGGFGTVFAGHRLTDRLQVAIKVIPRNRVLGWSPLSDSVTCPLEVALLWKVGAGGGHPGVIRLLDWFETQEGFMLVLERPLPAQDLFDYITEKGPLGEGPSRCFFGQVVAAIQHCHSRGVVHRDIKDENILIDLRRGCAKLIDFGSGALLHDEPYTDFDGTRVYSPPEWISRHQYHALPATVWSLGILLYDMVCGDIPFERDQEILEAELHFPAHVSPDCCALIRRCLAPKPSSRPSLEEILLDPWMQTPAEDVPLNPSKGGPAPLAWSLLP
Sequence of Pim 1 (P11309 whole entry): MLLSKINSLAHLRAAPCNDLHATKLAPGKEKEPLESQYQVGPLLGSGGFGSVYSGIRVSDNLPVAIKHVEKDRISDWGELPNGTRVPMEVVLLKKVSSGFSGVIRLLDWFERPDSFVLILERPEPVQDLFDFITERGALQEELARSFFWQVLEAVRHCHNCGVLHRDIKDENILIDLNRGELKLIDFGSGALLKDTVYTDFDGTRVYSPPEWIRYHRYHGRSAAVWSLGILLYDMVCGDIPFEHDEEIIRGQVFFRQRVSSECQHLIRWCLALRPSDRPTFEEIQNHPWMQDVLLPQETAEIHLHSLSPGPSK

Row | SMILES | IC50 [1] | IC50 [2] | IC50 [3] | EC50 [4]
1 | C[C@H]1CN(c2ccncc2NC(=O)c2ccc(F)c(-c3c(F)cc([C@@H](O)CO)cc3F)n2)C[C@@H](N)[C@@H]1O [Example 234, N-(4-((3R,4R,5S)-3-amino-4-hydroxy-5-methylpiperidin-1-yl)pyridin-3-yl)-6-(4-((R)-1,2-dihydroxyethyl)-2,6-difluorophenyl)-5-fluoropicolinamide] | 0.04 nM | 1.77 nM | 0.65 nM | 9 nM
2 | C[C@@H]1C[C@H](N)C[C@H](c2ccncc2NC(=O)c2ccc(F)c(-c3c(F)cc(OC(F)F)cc3F)n2)C1 [Example 65, N-(4-((1R,3S,5S)-3-amino-5-methylcyclohexyl)pyridin-3-yl)-6-(4-(difluoromethoxy)-2,6-difluorophenyl)-5-fluoropicolinamide] | 0.01 nM | 3.84 nM | 1.01 nM | 83 nM
3 | COCCc1cc(F)c(-c2nc(C(=O)Nc3cnccc3[C@H]3C[C@@H](N)[C@H](O)[C@@H](C)C3)ccc2F)c(F)c1 [Example 108, N-(4-((1R,3R,4R,5S)-3-amino-4-hydroxy-5-methylcyclohexyl)pyridin-3-yl)-6-(2,6-difluoro-4-(2-methoxyethyl)phenyl)-5-fluoropicolinamide] | 0.04 nM | 2.93 nM | 1.19 nM | 906 nM
4 | C=CCOc1ccc(F)c(-c2nc(C(=O)Nc3cnccc3[C@H]3C[C@@H](N)[C@H](O)[C@@H](C)C3)ccc2F)c1F [Example 194, 6-(3-(allyloxy)-2.6-difluorophenyl)-N-(4-((1R,3R,4R,5S)-3-amino-4-hydroxy-5-methylcyclohexyl)pyridin-3-yl)-5-fluoropicolinamide] | 0.05 nM | 10.4 nM | 1.19 nM | 1340 nM
5 | C[C@@H]1C[C@H](N)C[C@H](c2ccncc2NC(=O)c2nc(-c3c(F)cc(C4COC4)cc3F)c(F)cc2N)C1 [Example 241, 3-amino-N-(4-((1R,3S,5S)-3-amino-5-methylcyclohexyl)pyridin-3-yl)-6-(2,6-difluoro-4-(oxetan-3-yl)phenyl)-5-fluoropicolinamide] | 0.02 nM | 1.24 nM | 0.61 nM | 30 nM
6 | C[C@H]1C[C@@H](c2ccncc2NC(=O)c2ccc(F)c(-c3c(F)cc4c(c3F)OCC[C@]4(C)O)n2)C[C@@H](N)[C@@H]1O [Example 237, N-(4-((1R,3R,4R,5S)-3-amino-4-hydroxy-5-methylcyclohexyl)pyridin-3-yl)-6-((S)-6,8-difluoro-4-hydroxy-4-methylchroman-7-yl)-5-fluoropicolinamide] | 0.25 nM | 14.2 nM | 16 nM | 181 nM
7 | COCc1cc(F)c(-c2nc(C(=O)Nc3cnccc3[C@@H]3C[C@H](C)C[C@H](N)C3)ccc2F)c(F)c1 [Example 41, N-(4-((1R,3S,5S)-3-amino-5-methylcyclohexyl)pyridin-3-yl)-6-(2,6-difluoro-4-(methoxymethyl)phenyl)-5-fluoropicolinamide] | 0.04 nM | 2.78 nM | 2.14 nM | 22 nM
8 | C[C@H]1CN(c2ccncc2NC(=O)c2nc(-c3c(F)cc(C(C)(C)O)cc3F)c(F)cc2N)C[C@@H](N)[C@@H]1O [Example 102, 3-amino-N-(4-((3R,4R,5S)-3-amino-4-hydroxy-5-methylpiperidin-1-yl)pyridin-3-yl)-6-(2,6-difluoro-4-(2-hydroxypropan-2-yl)phenyl)-5-fluoropicolinamide] | 0.01 nM | 0.75 nM | 0.13 nM | 15 nM
9 | COCCOc1cc(F)c(-c2cccc(C(=O)Nc3cnccc3[C@@H]3C[C@H](C)C[C@H](N)C3)n2)c(F)c1 [Example 188, N-(4-((1R,3S,5S)-3-amino-5-methylcyclohexyl)pyridin-3-yl)-6-(2,6-difluoro-4-(2-methoxyethoxy)phenyl)picolinamide] | 0.07 nM | 3.96 nM | 1.96 nM | 478 nM
10 | C[C@@H]1C[C@H](N)C[C@H](c2ccncc2NC(=O)c2ccc(F)c(-c3c(F)cc(OC4CCOCC4)cc3F)n2)C1 [Example 63, N-(4-((1R,3S,5S)-3-amino-5-methylcyclohexyl)pyridin-3-yl)-6-(2,6-difluoro-4-((tetrahydro-2H-pyran-4-yl)oxy)phenyl)-5-fluoropicolinamide] | 0.01 nM | 2.04 nM | 0.32 nM | 76 nM
11 | C[C@H]1CN(c2ccncc2NC(=O)c2ccc(F)c(-c3c(F)cc(OCC(F)(F)F)cc3F)n2)C[C@@H](N)[C@@H]1O [Example 198, N-(4-((3R,4R,5S)-3-amino-4-hydroxy-5-methylpiperidin-1-yl)pyridin-3-yl)-6-(2,6-difluoro-4-(2,2,2-trifluoroethoxy)phenyl)-5-fluoropicolinamide] | 0.01 nM | 0.33 nM | 0.17 nM | 98 nM
12 | C[C@@H]1C[C@H](N)C[C@H](c2ccncc2NC(=O)c2ccc(F)c(-c3c(F)cc(OCC(=O)N(C)C)cc3F)n2)C1 [Example 143, N-(4-((1R,3S,5S)-3-amino-5-methylcyclohexyl)pyridin-3-yl)-6-(4-(2-(dimethylamino)-2-oxoethoxy)-2,6-difluorophenyl)-5-fluoropicolinamide] | 0.05 nM | 9.42 nM | 0.77 nM | 197 nM
13 | C[C@@H]1C[C@H](N)C[C@H](c2ccncc2NC(=O)c2ccc(F)c(-c3c(F)cc(OCC4CC4)cc3F)n2)C1 [Example 64, N-(4-((1R,3S,5S)-3-amino-5-methylcyclohexyl)pyridin-3-yl)-6-(4-(cyclopropylmethoxy)-2,6-difluorophenyl)-5-fluoropicolinamide] | 0.01 nM | 1.96 nM | 0.51 nM | 37 nM
14 | CC(C)Oc1cc(F)c(-c2cccc(C(=O)Nc3cnccc3[C@H]3C[C@@H](N)[C@H](O)[C@@H](C)C3)n2)c(F)c1 [Example 189, N-(4-((1R,3R,4R,5S)-3-amino-4-hydroxy-5-methylcyclohexyl)pyridin-3-yl)-6-(2,6-difluoro-4-isopropoxyphenyl)picolinamide] | 0.04 nM | 2.67 nM | 0.96 nM | 470 nM
15 | C[C@@H]1C[C@H](N)C[C@H](c2ccncc2NC(=O)c2ccc(F)c(-c3c(F)cc(C4(F)CCOCC4)cc3F)n2)C1 [Example 126, N-(4-((1R,3S,5S)-3-amino-5-methylcyclohexyl)pyridin-3-yl)-6-(216-difluoro-4-(4-fluorotetrahydro-2H-pyran-4-yl)phenyl)-5-fluoropicolinamide] | 0.02 nM | 1.33 nM | 1.15 nM | 64 nM
16 | C[C@@H]1C[C@H](N)C[C@H](c2ccncc2NC(=O)c2ccc(F)c(-c3c(F)cc(OCC(F)(F)F)cc3F)n2)C1 [Example 196, N-(4-((1R,3S,5S)-3-amino-5-methylcyclohexyl)pyridin-3-yl)-6-(2,6-difluoro-4-(2,2,2-trifluoroethoxy)phenyl)-5-fluoropicolinamide] | 0.02 nM | 2.76 nM | 1.37 nM | 246 nM
17 | C[C@H]1CN(c2ccncc2NC(=O)c2ccc(F)c(-c3c(F)cc(OCC4CCOCC4)cc3F)n2)C[C@@H](N)[C@@H]1O [Example 200, N-(4-((3R,4R,5S)-3-amino-4-hydroxy-5-methylpiperidin-1-yl)pyridin-3-yl)-6-(2,6-difluoro-4-((tetrahydro-2H-pyran-4-yl)methoxy)phenyl)-5-fluoropicolinamide] | 0.01 nM | 0.56 nM | 0.19 nM | 82 nM
18 | Cc1cc(F)c(-c2nc(C(=O)Nc3cnccc3N3C[C@@H](N)[C@H](O)[C@@H](C)C3)ccc2F)c(F)c1 [Example 37, N-(4-((3R,4R,5S)-3-amino-4-hydroxy-5-methylpiperidin-1-yl)pyridin-3-yl)-6-(2,6-difluoro-4-methylphenyl)-5-fluoropicolinamide] | 0.02 nM | 0.94 nM | 0.28 nM | 13 nM
19 | CCC(=O)c1cc(F)c(-c2nc(C(=O)Nc3cnccc3[C@@H]3C[C@H](C)C[C@H](N)C3)ccc2F)c(F)c1 [Example 43, N-(4-((1R,3S,5S)-3-amino-5-methylcyclohexyl)pyridin-3-yl)-6-(2,6-difluoro-4-propionylphenyl)-5-fluoropicolinamide] | 0.14 nM | 15.3 nM | 11.4 nM | 43 nM
20 | COCCOc1cc(F)c(-c2nc(C(=O)Nc3cnccc3[C@H]3C[C@@H](N)C[C@@H](C(C)C)C3)ccc2F)c(F)c1 [Example 175, N-(4-((1R,3S,5S)-3-amino-5-isopropylcyclohexyl)pyridin-3-yl)-6-(2,6-difluoro-4-(2-methoxyethoxy)phenyl)-5-fluoropicolinamide] | 0.01 nM | 0.98 nM | 0.46 nM | 176 nM
21 | C[C@H]1CN(c2ccncc2NC(=O)c2ccc(F)c(-c3c(F)cc(C4CCOCC4)cc3F)n2)C[C@@H](N)[C@@H]1O [Example 99, N-(4-((3R,4R,5S)-3-amino-4-hydroxy-5-methylpiperidin-1-yl)pyridin-3-yl)-6-(2,6-difluoro-4-(tetrahydro-2H-pyran-4-yl)phenyl)-5-fluoropicolinamide] | 0.01 nM | 0.57 nM | 0.12 nM | 10 nM
22 | C[C@@H]1C[C@H](N)C[C@H](c2ccncc2NC(=O)c2ccc(F)c(-c3c(F)cc(COC4CCOCC4)cc3F)n2)C1 [Example 149, N-(4-((1R,3S,5S)-3-amino-5-methylcyclohexyl)pyridin-3-yl)-6-(2,6-difluoro-4-((tetrahydro-2H-pyran-4-yloxy)methyl)phenyl)-5-fluoropicolinamide] | 0.03 nM | 2.96 nM | 1.72 nM | 148 nM
